In article PMC9046089, “CCNE1 amplification is synthetic lethal with PKMYT1 kinase inhibition” (Nature, 2022):
Several values for one entry are separate records, joined by “and”; a condition that tells them apart may be missing. Equal values may be shown once.

Assays:
cytoplasmic cyclin B = experiment: QIBC of cytoplasmic cyclin B intensity in EdU+ cells after HU or gemcitabine; assay type: cell-based; conditions: 48 h
Protocol: Before collection, cells were pulsed with 20 μM EdU (5-ethynyl-2-deoxyuridine, Life Technologies cat. no. A10044) for 30 min and then washed with PBS and fixed with 4% paraformaldehyde (PFA) in PBS for 15 min at room temperature. Cells were then rinsed with PBS and permeabilized using 0.3% Triton X-100/PBS for 30 min. For chromatin-bound MCM measurements, cells were pre-extracted for 15 min on ice with CSK buffer (300 mM sucrose, 100 mM NaCl, 3 mM MgCl2, 10 mM PIPES pH 7.0, 0.5% v/v Triton-X 100) before PFA fixation. […] Fresh blocking buffer containing primary antibodies was added for 2 h. Cells were rinsed three times with PBS and then blocking buffer, with secondary antibodies and 0.4 μg ml^−1 DAPI (4,6-diamidino-2-phenylindole, Sigma-Aldrich, cat. no. D9542) was added for 1 h. After rinsing with PBS, immunocomplexes were fixed again using 4% PFA/PBS for 5 min.
Cells were fixed, permeabilized and stained in the same manner as immunofluorescence described above. Wells were filled with 200 μl PBS and images were acquired at the Network Biology Collaborative Centre (LTRI) on an InCell Analyzer 6000 automated microscope (GE Life Sciences) with a 20× objective. Image analysis was performed using Cellprofiler 3.1.9 and RStudio v1.2.5019[57] (Supplementary Fig. 4).

[1] = tested on: cyclin B, CDK1, CDK1-pT14; experiment: Immunoblot of cyclin B, CDK1 and CDK1-pT14 after HU or gemcitabine; conditions: for Quantitation of CDK1 (immunoblot of whole cell lysates) / Quantitation of CDK1-pT14 relative to total CDK1 (immunoblot of whole cell lysates) / Quantitation of cyclin B (immunoblot of whole cell lysates): FT282-hTERT-p53-R175H, DMSO = 1; for levels of cyclin B or CDK1: immunoblot and QIBC; for CDK1 pT14 levels: immunoblot, controlling for total CDK1
HCC1569 cells = experiment: Cell proliferation assay (Incucyte growth inhibition, synergy); assay type: cell-based; conditions: for % growth relative to untreated: RP-6306 0
Source text: Per cent confluence relative to a non-treated control was used to evaluate growth inhibition induced by test compounds. […] (https://synergyfinder.fimm.fi).

NC(=O)NO [hydroxyurea]
fold-change of cytoplasmic cyclin B intensity in EdU+ cells (cytoplasmic cyclin B; FT282-hTERT-p53-R175H CCNE1 high (C3), HU 50 mM (so in the source), listed as HU): 0.9979 and 0.9823 and 1.013 | fold-change of cytoplasmic cyclin B intensity in EdU+ cells (cytoplasmic cyclin B; FT282-hTERT-p53-R175H CCNE1 high (C3), HU 100 mM (so in the source), listed as HU): 1.038 and 1.0461 and 1.056 | fold-change of cytoplasmic cyclin B intensity in EdU+ cells (cytoplasmic cyclin B; FT282-hTERT-p53-R175H CCNE1 high (C3), HU 200 mM (so in the source), listed as HU): 1.095 and 1.0628 and 1.094 | fold-change of cytoplasmic cyclin B intensity in EdU+ cells (cytoplasmic cyclin B; FT282-hTERT-p53-R175H CCNE1 high (C3), HU 400 mM (so in the source), listed as HU): 1.408 and 1.403 and 1.354 | fold-change of cytoplasmic cyclin B intensity in EdU+ cells (cytoplasmic cyclin B; FT282-hTERT-p53-R175H WT, HU 50 mM (so in the source), listed as HU): 1.011 and 1.029 and 1.0186 | fold-change of cytoplasmic cyclin B intensity in EdU+ cells (cytoplasmic cyclin B; FT282-hTERT-p53-R175H WT, HU 100 mM (so in the source), listed as HU): 1.025 and 1.031 and 1.053 | fold-change of cytoplasmic cyclin B intensity in EdU+ cells (cytoplasmic cyclin B; FT282-hTERT-p53-R175H WT, HU 200 mM (so in the source), listed as HU): 1.0835 and 1.059 and 1.12 | fold-change of cytoplasmic cyclin B intensity in EdU+ cells (cytoplasmic cyclin B; FT282-hTERT-p53-R175H WT, HU 400 mM (so in the source), listed as HU): 1.261 and 1.177 and 1.385 | Quantitation of CDK1 (immunoblot of whole cell lysates) ([1]; 400 µM HU, listed as HU): 1.2117 and 1.452 and 2.133 | Quantitation of CDK1-pT14 relative to total CDK1 (immunoblot of whole cell lysates) ([1]; 400 µM HU, listed as HU): 1.45 and 1.634 and 1.7444 | Quantitation of cyclin B (immunoblot of whole cell lysates) ([1]; 400 µM HU, listed as HU): 1.625 and 1.428 and 1.053 | levels of cyclin B or CDK1 [1]: did not detect increased levels | CDK1 pT14 levels [1]: increased

Nc1ccn([C@@H]2O[C@H](CO)[C@@H](O)C2(F)F)c(=O)n1 [gemcitabine]
growth relative to DMSO control (HCC1569 cells; 0.556 nM gemcitabine, DMSO = 100): 76.36 and 70.43 | % growth relative to untreated (HCC1569 cells; gemcitabine 0.0524288 nM): 96.4701% | % growth relative to untreated (HCC1569 cells; gemcitabine 0.131072 nM): 85.3567% | % growth relative to untreated (HCC1569 cells; gemcitabine 0.32768 nM): 85.2938% | % growth relative to untreated (HCC1569 cells; gemcitabine 0.8192 nM): 45.6374% | % growth relative to untreated (HCC1569 cells; gemcitabine 2.048 nM): 16.2355% | % growth relative to untreated (HCC1569 cells; gemcitabine 5.12 nM): 11.6895% | % growth relative to untreated (HCC1569 cells; gemcitabine 12.8 nM): 9.354% | % growth relative to untreated (HCC1569 cells; gemcitabine 32 nM): 7.468% | % growth relative to untreated (HCC1569 cells; gemcitabine 80 nM): 5.95% | fold-change of cytoplasmic cyclin B intensity in EdU+ cells (cytoplasmic cyclin B; FT282-hTERT-p53-R175H CCNE1 high (C3), gemcitabine 5 nM): 1.161 and 1.404 and 1.38 | fold-change of cytoplasmic cyclin B intensity in EdU+ cells (cytoplasmic cyclin B; FT282-hTERT-p53-R175H WT, gemcitabine 5 nM): 1.346 and 1.467 and 1.135 | Quantitation of CDK1 (immunoblot of whole cell lysates) ([1]; 5 nM Gemcitabine): 1.203 and 0.9791 and 1.593 | Quantitation of CDK1-pT14 relative to total CDK1 (immunoblot of whole cell lysates) ([1]; 5 nM Gemcitabine): 1.528 and 2.085 and 1.888 | Quantitation of cyclin B (immunoblot of whole cell lysates) ([1]; 5 nM Gemcitabine): 1.877 and 1.201 and 1.262 | levels of cyclin B or CDK1 [1]: did not detect increased levels | CDK1 pT14 levels [1]: increased
